This note sets out measurements from patent publication US7078403B1, “Antiviral agents” (Biota Scientific Management Pty Ltd., priority 1999, dated 2006).

Data set [1] has as its system HRV type 1A. The experiment in a line: Inhibition of viral cytopathic effect (CPE), visual scoring or neutral red, HRV type 1A in MRC-5 cells. In kind it is cell-based, human rhinovirus. The note with it: for Activity on Rhinovirus Type 1A EC50: HRV type 1A in MRC-5 cells, CPE inhibition; for Activity on Rhinovirus Type 1A SI: selectivity index = CC50 or MTC divided by EC50, HRV type 1A, MRC-5 cells.

Data set [2] has as its system human embryo lung (MRC-5) cells. The experiment in a line: Cytotoxicity (CC50 or MTC) in uninfected MRC-5 cells. The note with it: unit not given.

As to `C=CCON=Cc1ccc(OCC2CCN(c3ccc(Cl)nn3)CC2)cc1` [Compound 30], in data set [1], the “Activity on Rhinovirus Type 1A EC50” value is 0.036 µg/mL and the “Activity on Rhinovirus Type 1A SI” value is reported as more than 28. Also, the “Activity on Rhinovirus Type 1A MTC” value in data set [2] is given as more than 1.
Consider `CON=Cc1cc(O)cc(OCCC2CCN(c3ccc(Cl)nn3)CC2)c1` [Compound 38], for which, in data set [1], the “Activity on Rhinovirus Type 1A EC50” value came to 0.69 µg/mL and the “Activity on Rhinovirus Type 1A SI” value is more than 1.45. Besides, the “Activity on Rhinovirus Type 1A MTC” value in data set [2] is given as more than 1.
For `CCON=Cc1cccc(OCCC2CCN(c3ccc(C)nn3)CC2)c1` [Compound 46], in data set [1], the “Activity on Rhinovirus Type 1A EC50” value was 0.062 µg/mL and the “Activity on Rhinovirus Type 1A SI” value was more than 16.0. For the same compound, the “Activity on Rhinovirus Type 1A MTC” value in data set [2] is recorded as more than 1.
Regarding `C=CCON=Cc1cccc(OCCC2CCN(c3ccc(C)nn3)CC2)c1` [Compound 47], in data set [1], the “Activity on Rhinovirus Type 1A EC50” value turned out to be 0.066 µg/mL and the “Activity on Rhinovirus Type 1A SI” value is more than 15. The “Activity on Rhinovirus Type 1A MTC” value in data set [2] is more than 1.
Taken in the same sequence, the figures for `CON=Cc1cccc(OCCC2CCN(c3ccc(C)nn3)CC2)c1` [Compound 48] were 0.016 µg/mL, more than 62 and more than 1.
As to `CCON=Cc1ccc(OCCC2CCN(c3cccnn3)CC2)cc1` [Compound 49], in data set [1], the “Activity on Rhinovirus Type 1A EC50” value came to 0.056 µg/mL and the “Activity on Rhinovirus Type 1A SI” value is recorded as more than 17.8. Also, the “Activity on Rhinovirus Type 1A MTC” value in data set [2] is recorded as more than 1.
Taken in the same sequence, the figures for `CCO/N=C/c1ccc(OCCC2CCN(c3ccc(Cl)nn3)CC2)cc1OC` [Compound 50] were 0.008 µg/mL, more than 121.7 and more than 1.
Taken in the same sequence, the figures for `C=CCON=Cc1ccc(OCCC2CCN(c3ccc(C)nn3)CC2)c(C)c1` [Compound 53] were less than 0.003 µg/mL, more than 208 and 0.667.
For `CCCON=Cc1ccc(OCCC2CCN(c3ccc(C)nn3)CC2)c(C)c1` [Compound 54], in data set [1], the “Activity on Rhinovirus Type 1A EC50” value was 0.007 µg/mL and the “Activity on Rhinovirus Type 1A SI” value was determined as 91. For the same compound, the “Activity on Rhinovirus Type 1A MTC” value in data set [2] is on record as 0.663.
As to `CCON=Cc1ccc(OC2CCN(c3ccc(Cl)nn3)CC2)cc1` [Compound 55], in data set [1], the “Activity on Rhinovirus Type 1A EC50” value worked out at 2.68 µg/mL and the “Activity on Rhinovirus Type 1A SI” value is more than 3. In addition, in data set [2], the “Activity on Rhinovirus Type 1A MTC” value is listed as more than 10.
For the compound `CCON=Cc1ccc(OCCC2CCN(c3ccc(-c4ccccc4)nn3)CC2)cc1` [Compound 56], in data set [1], the “Activity on Rhinovirus Type 1A EC50” value turned out to be 2.31 µg/mL and the “Activity on Rhinovirus Type 1A SI” value was more than 3. For the same compound, the “Activity on Rhinovirus Type 1A MTC” value in data set [2] is more than 10.
In the case of `CCON=Cc1ccc(OCCC2CCN(c3ccc(C(F)(F)F)nn3)CC2)cc1` [Compound 58], in data set [1], the “Activity on Rhinovirus Type 1A EC50” value was 0.498 µg/mL and the “Activity on Rhinovirus Type 1A SI” value is listed as more than 2. Besides, the “Activity on Rhinovirus Type 1A MTC” value in data set [2] was more than 1.
As for `Cc1ccc(N2CCC(CCOc3ccc(C=NOCC(F)(F)F)cc3)CC2)nn1` [Compound 59], in data set [1], the “Activity on Rhinovirus Type 1A EC50” value came to 0.162 µg/mL and the “Activity on Rhinovirus Type 1A SI” value is 3.4. The “Activity on Rhinovirus Type 1A MTC” value in data set [2] amounted to 0.56.
Taken in the same sequence, the figures for `CON=Cc1cccc(OCC2CCN(c3ccc(Cl)nn3)CC2)c1` [Compound 60] were 0.183 µg/mL, more than 17 and more than 1.
Taken in the same sequence, the figures for `CCON=Cc1cccc(OCC2CCN(c3ccc(Cl)nn3)CC2)c1` [Compound 61] were 0.058 µg/mL, more than 14 and more than 1.
Taken in the same sequence, the figures for `C=CCON=Cc1cccc(OCC2CCN(c3ccc(Cl)nn3)CC2)c1` [Compound 62] were 0.067 µg/mL, more than 14 and more than 1.
Take `C=CCON=Cc1ccc(OCCC2CCN(c3ccc(OC)nn3)CC2)cc1` [Compound 63]: in data set [1], the “Activity on Rhinovirus Type 1A EC50” value turned out to be 0.06 µg/mL and the “Activity on Rhinovirus Type 1A SI” value is more than 15. Moreover, the “Activity on Rhinovirus Type 1A MTC” value in data set [2] was more than 1.
On to `CCON=Cc1ccc(OCCN2CCN(c3cccnn3)CC2)cc1` [Compound 64], for which, in data set [1], the “Activity on Rhinovirus Type 1A EC50” value came out at 0.05 µg/mL and the “Activity on Rhinovirus Type 1A SI” value is recorded as more than 17. Also, in data set [2], the “Activity on Rhinovirus Type 1A MTC” value is more than 1.
Taken in the same sequence, the figures for `CCON=Cc1cccc(OCCN2CCN(c3cccnn3)CC2)c1` [Compound 65] were 0.21 µg/mL, more than 4.5 and more than 1.
Regarding `C=CCON=Cc1ccc(OCCN2CCN(c3cccnn3)CC2)cc1` [Compound 66], in data set [1], the “Activity on Rhinovirus Type 1A EC50” value stood at 0.05 µg/mL and the “Activity on Rhinovirus Type 1A SI” value was more than 18. For the same compound, the “Activity on Rhinovirus Type 1A MTC” value in data set [2] is more than 1.
Taken in the same sequence, the figures for `CON=Cc1ccc(OCCN2CCN(c3ccc(C)nn3)CC2)cc1` [Compound 67] were 0.04 µg/mL, more than 20 and more than 1.
Taken in the same sequence, the figures for `CCON=Cc1ccc(OCCN2CCN(c3ccc(C)nn3)CC2)cc1` [Compound 68] were 0.04 µg/mL, more than 25 and more than 1.
Taken in the same sequence, the figures for `C=CCON=Cc1ccc(OCCN2CCN(c3ccc(C)nn3)CC2)cc1` [Compound 69] were 0.18 µg/mL, more than 5 and more than 1.
Turning to `CON=Cc1cccc(OCCN2CCN(c3ccc(C)nn3)CC2)c1` [Compound 70], in data set [1], the “Activity on Rhinovirus Type 1A EC50” value was 0.05 µg/mL and the “Activity on Rhinovirus Type 1A SI” value is given as more than 16. The “Activity on Rhinovirus Type 1A MTC” value in data set [2] is more than 1.
Taken in the same sequence, the figures for `CCON=Cc1cccc(OCCN2CCN(c3ccc(C)nn3)CC2)c1` [Compound 71] were 0.05 µg/mL, more than 18 and more than 1.
`C=CCON=Cc1cccc(OCCN2CCN(c3ccc(C)nn3)CC2)c1` [Compound 72]: in data set [1], the “Activity on Rhinovirus Type 1A EC50” value amounted to 0.16 µg/mL and the “Activity on Rhinovirus Type 1A SI” value is more than 6. Besides, the “Activity on Rhinovirus Type 1A MTC” value in data set [2] was more than 1.
For the compound `CON=Cc1ccc(OCCN2CCN(c3ccc(Cl)nn3)CC2)cc1` [Compound 73], in data set [1], the “Activity on Rhinovirus Type 1A EC50” value is 0.003 µg/mL and the “Activity on Rhinovirus Type 1A SI” value is given as more than 312. Besides, the “Activity on Rhinovirus Type 1A MTC” value in data set [2] is reported as more than 1.
Taken in the same sequence, the figures for `C=CCON=Cc1ccc(OCCN2CCN(c3ccc(Cl)nn3)CC2)cc1` [Compound 74] were 0.02 µg/mL, more than 46 and more than 1.
Take `CON=Cc1cccc(OCCN2CCN(c3ccc(Cl)nn3)CC2)c1` [Compound 75]: in data set [1], the “Activity on Rhinovirus Type 1A EC50” value was found to be 0.01 µg/mL and the “Activity on Rhinovirus Type 1A SI” value was more than 98. In addition, in data set [2], the “Activity on Rhinovirus Type 1A MTC” value is reported as more than 1.
Taken in the same sequence, the figures for `CCON=Cc1cccc(OCCN2CCN(c3ccc(Cl)nn3)CC2)c1` [Compound 76] were 0.01 µg/mL, more than 98 and more than 1.
In the case of `C=CCON=Cc1cccc(OCCN2CCN(c3ccc(Cl)nn3)CC2)c1` [Compound 77], in data set [1], the “Activity on Rhinovirus Type 1A EC50” value is 0.003 µg/mL and the “Activity on Rhinovirus Type 1A SI” value is more than 279. Besides, the “Activity on Rhinovirus Type 1A MTC” value in data set [2] was more than 1.
Taken in the same sequence, the figures for `CCON=Cc1ccc(OCCC2CCN(c3ccc(C(F)(F)F)cn3)CC2)cc1` [Compound 84] were 0.05 µg/mL, more than 19.6 and more than 1.
As to `CCCON=Cc1ccc(OCCC2CCN(c3ccc(C)nn3)CC2)cc1` [Compound 85], in data set [1], the “Activity on Rhinovirus Type 1A EC50” value was found to be 0.08 µg/mL and the “Activity on Rhinovirus Type 1A SI” value is more than 12. For the same compound, the “Activity on Rhinovirus Type 1A MTC” value in data set [2] was more than 1.
As to `C=CCON=Cc1ccc(OCCC2CCN(c3ccc(C)nn3)CC2)cc1` [Compound 87], in data set [1], the “Activity on Rhinovirus Type 1A EC50” value worked out at 0.01 µg/mL and the “Activity on Rhinovirus Type 1A SI” value was more than 51. For the same compound, in data set [2], the “Activity on Rhinovirus Type 1A MTC” value is more than 1.
Taken in the same sequence, the figures for `C#CCON=Cc1ccc(OCCC2CCN(c3ccc(C)nn3)CC2)cc1` [Compound 88] were 0.005 µg/mL, more than 172 and more than 1.
Regarding `CON=Cc1ccc(OCCCC2CCN(c3ccc(Cl)nn3)CC2)cc1` [Compound 89], in data set [1], the “Activity on Rhinovirus Type 1A EC50” value is 0.005 µg/mL and the “Activity on Rhinovirus Type 1A SI” value was more than 174. Moreover, the “Activity on Rhinovirus Type 1A MTC” value in data set [2] is listed as more than 1.
For `CON=Cc1cccc(OCCCC2CCN(c3ccc(Cl)nn3)CC2)c1` [Compound 91], in data set [1], the “Activity on Rhinovirus Type 1A EC50” value came out at 0.02 µg/mL and the “Activity on Rhinovirus Type 1A SI” value is more than 46. For the same compound, in data set [2], the “Activity on Rhinovirus Type 1A MTC” value is recorded as more than 1.
With `CCON=Cc1cccc(OCCCC2CCN(c3ccc(Cl)nn3)CC2)c1` [Compound 92], in data set [1], the “Activity on Rhinovirus Type 1A EC50” value was 0.20 µg/mL and the “Activity on Rhinovirus Type 1A SI” value is given as more than 5. Moreover, the “Activity on Rhinovirus Type 1A MTC” value in data set [2] is reported as more than 1.
On to `CON=Cc1ccc(OCCCC2CCN(c3ccc(C)nn3)CC2)cc1` [Compound 94], for which, in data set [1], the “Activity on Rhinovirus Type 1A EC50” value stood at 0.024 µg/mL and the “Activity on Rhinovirus Type 1A SI” value is listed as more than 41. In data set [2], the “Activity on Rhinovirus Type 1A MTC” value was more than 1.
Taken in the same sequence, the figures for `CCON=Cc1ccc(OCCCC2CCN(c3ccc(C)nn3)CC2)cc1` [Compound 95] were 0.30 µg/mL, more than 3 and more than 1.
